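Protocol summary: plate cells (96-well), add compound at 5 concentrations, incubate 48 h, interpolate endpoints linearly. Here, GI50 denotes the concentration required for 50% inhibition of growth.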 Calls of active or inactive are those of the source. Cut-off read from the data, not from the text of the source: active = GI50 up to about 1.1 µM and inactive = higher.
Tests used:
Test in all cases: NCI tumour cell line growth inhibition, 48 h
DMS-273 = system: DMS-273
RXF 631 = system: RXF 631
SNB-78 = system: SNB-78
KM-20L2 = system: KM-20L2
BT-549 = system: BT-549
LXFL 529 = system: LXFL 529
M19-MEL = system: M19-MEL
DLD-1 = system: DLD-1
XF498 = system: XF498

Measured: GI50

CC(=O)CC[N+](C)(C)C
inactive: DMS-273 21 µM | RXF 631 28.8 µM | SNB-78 12.5 µM | KM-20L2 25.7 µM | BT-549 35 µM | LXFL 529 12.9 µM | M19-MEL 23.3 µM | DLD-1 10.1 µM

CS/C(=N\c1ccc([N+](=O)[O-])cc1C#N)NC(=O)c1ccccc1
inactive: XF498 > 100 µM | RXF 631 > 100 µM | SNB-78 > 100 µM | KM-20L2 > 100 µM | LXFL 529 > 100 µM | M19-MEL > 100 µM | DLD-1 > 100 µM

Cc1nn(C(=O)CC(=O)Nc2ccccc2Cl)c(C)c1/N=N/c1ccccc1Cl
inactive: DMS-273 > 100 µM | XF498 > 100 µM | RXF 631 > 100 µM | SNB-78 40.9 µM | KM-20L2 > 100 µM | LXFL 529 > 100 µM | M19-MEL > 100 µM | DLD-1 > 100 µM

C/C(CCn1[nH]c(=O)ccc1=O)=N\OCCCc1ccccc1
inactive: DMS-273 > 100 µM | XF498 > 100 µM | SNB-78 > 100 µM | KM-20L2 > 100 µM | LXFL 529 > 100 µM | M19-MEL > 100 µM | DLD-1 > 100 µM

O=C(Nc1ccc(Cl)cc1Cl)C1C(=O)N(c2ccc(Cl)cc2Cl)C(=O)/C1=N\Nc1ccc([N+](=O)[O-])cc1[N+](=O)[O-] (stereo not given)
inactive: DMS-273 46.6 µM | RXF 631 62.2 µM | SNB-78 > 100 µM | KM-20L2 26.4 µM | LXFL 529 13.9 µM | M19-MEL 59.3 µM | DLD-1 46.8 µM

CCOC(=O)C1=C(C)C2C3C(=O)OC(=O)C3C1(C)C1C(=O)OC(=O)C21 (stereo not given)
inactive: DMS-273 > 100 µM | RXF 631 > 100 µM | SNB-78 > 100 µM | KM-20L2 > 100 µM | LXFL 529 > 100 µM | M19-MEL > 100 µM | DLD-1 > 100 µM

CC(=O)N/C(=C\c1ccc(/C=C(\NC(C)=O)c2nc3cc(Cl)ccc3[nH]2)cc1)c1nc2ccccc2[nH]1
inactive: DMS-273 > 100 µM | XF498 > 100 µM | RXF 631 > 100 µM | SNB-78 > 100 µM | KM-20L2 > 100 µM | LXFL 529 > 100 µM | M19-MEL > 100 µM | DLD-1 > 100 µM

C1=C(c2ccccc2)C(OC2Oc3ccccc3C=C2c2ccccc2)Oc2ccccc21 (stereo not given)
inactive: DMS-273 > 100 µM | XF498 > 100 µM | RXF 631 > 100 µM | SNB-78 > 100 µM | KM-20L2 > 100 µM | LXFL 529 > 100 µM | M19-MEL > 100 µM | DLD-1 > 100 µM

Cc1ccc(NC(=O)CCc2nnc(S)[nH]2)cc1
inactive: DMS-273 > 100 µM | XF498 > 100 µM | RXF 631 > 100 µM | SNB-78 > 100 µM | KM-20L2 54.8 µM | LXFL 529 > 100 µM | M19-MEL > 100 µM | DLD-1 > 100 µM

Nc1cn(C2OC(CC(c3ccccc3)(c3ccccc3)c3ccccc3)C(O)C2O)c(=O)[nH]c1=O (stereo not given)
inactive: DMS-273 33.3 µM | XF498 28.6 µM | RXF 631 43.9 µM | SNB-78 67.9 µM | KM-20L2 22 µM | LXFL 529 31.8 µM | M19-MEL 18.4 µM | DLD-1 24.5 µM

CC(=O)C1=C(O)C(N)C2Cc3c(c(O)c4c(O)c(C)ccc4c3C)C(=O)C2(O)C1=O (stereo not given)
inactive: DMS-273 1.73 µM | XF498 1.84 µM | RXF 631 2.2 µM | SNB-78 2.17 µM | KM-20L2 2.85 µM | LXFL 529 2.66 µM | M19-MEL 2.48 µM | DLD-1 2 µM

Cc1cc(O)c(C=O)c(C)c1CCC1(C)C=Cc2cc(O)ccc2O1 (stereo not given)
inactive: DMS-273 21.5 µM | XF498 19.1 µM | SNB-78 21.2 µM | KM-20L2 25.1 µM | LXFL 529 15.7 µM | M19-MEL 27.7 µM | DLD-1 19.6 µM

N#C/C(=C1\SC(/N=N/c2ccccc2)C(=O)N1c1ccccc1)c1nc2ccccc2[nH]1 (stereo not given)
inactive: DMS-273 45.7 µM | XF498 17.7 µM | SNB-78 > 100 µM | KM-20L2 > 100 µM | LXFL 529 > 100 µM | M19-MEL > 100 µM | DLD-1 > 100 µM

Fc1ccc(/N=C2C=C/C(=N\c3ccc(F)cc3)c3ccccc3\2)cc1
inactive: DMS-273 > 100 µM | XF498 > 100 µM | SNB-78 > 100 µM | KM-20L2 > 100 µM | LXFL 529 > 100 µM | M19-MEL > 100 µM | DLD-1 > 100 µM

O=C(CC1(O)C(=O)Nc2ccc([N+](=O)[O-])cc21)c1ccc2ccccc2c1 (stereo not given)
inactive: DMS-273 > 100 µM | RXF 631 > 100 µM | SNB-78 > 100 µM | KM-20L2 > 100 µM | LXFL 529 > 100 µM | M19-MEL > 100 µM | DLD-1 > 100 µM

CCO/N=C(/N)c1ncn(Cc2ccccc2)c1NCC(OCC)OCC
inactive: DMS-273 > 100 µM | XF498 29.7 µM | SNB-78 > 100 µM | KM-20L2 > 100 µM | LXFL 529 > 100 µM | M19-MEL > 100 µM | DLD-1 > 100 µM

CC1OC(=O)N2CCC=CC12 (stereo not given)
inactive: DMS-273 > 100 µM | XF498 > 100 µM | RXF 631 > 100 µM | SNB-78 > 100 µM | KM-20L2 > 100 µM | LXFL 529 > 100 µM | M19-MEL > 100 µM | DLD-1 > 100 µM

O=[N+]([O-])c1nccn1CC(O)CN1CC1 (stereo not given)
inactive: DMS-273 27.4 µM | XF498 > 100 µM | RXF 631 40 µM | SNB-78 78 µM | KM-20L2 61.2 µM | LXFL 529 79.4 µM | M19-MEL 63.4 µM | DLD-1 69.3 µM

— ChEMBL document CHEMBL1201862, “PubChem BioAssay data set” (2004)
